The values below come from publication PMC11742723, “The clinical-stage drug BTZ-043 accumulates in murine tuberculosis lesions and efficiently acts against Mycobacterium tuberculosis” (Nature Communications, 2025).

Series [1] relates to Mtb H37Rv. The series can be described thus: BTZ-043 dose escalation study in Mtb-infected BALB/c mice (pulmonary CFU). The class given is in vivo, Mycobacterium tuberculosis. To be noted: 25 mg/kg INH, individual female mice.
Series [2] has as its system Mtb H37Rv. Kind of series: BTZ-043 dose-fractionation study in Mtb-infected BALB/c mice (lung CFU). The class given is in vivo, Mycobacterium tuberculosis. The note with it: 10 mg /kg INH; 6 weeks of treatment; individual female mice.
Series [3] can be described thus: In vitro permeability assay in Caco-2 monolayers. To be noted: human; for Papp at 120 min, 25 µg/mL / Papp at 120 min, 40 µg/mL: Caco-2, Mean Papp, n=3; for Papp at 120 min, 25 µg/mL: Caco-2, 25 µg/mL; for Papp at 120 min, 40 µg/mL: Caco-2, 40 µg/mL.
In series [4] the test system is Caco-2 cell monolayers. The series can be described thus: In vitro permeability assay in Caco-2 monolayers. To be noted: for Concentration: replicates 1-3.
Series [5] relates to Caco-2. The note with it: cited from earlier work.
For series [6] the following is noted: cited from earlier work.

The structures appear in SMILES notation. Where “and” joins values, the source holds several entries; their conditions need not be identical. Identical values can stand only once.

Take `NNC(=O)c1ccncc1` [INH, isoniazid, reference compound]: the “pulmonary CFU counts / mouse” value was 306600 CFU counts / mouse and 698438 CFU counts / mouse and 504563 CFU counts / mouse and 274286 CFU counts / mouse and 298200 CFU counts / mouse and 595125 CFU counts / mouse in series [1] (4 weeks of treatment); 135000 CFU counts / mouse and 142313 CFU counts / mouse and 207692 CFU counts / mouse and 103500 CFU counts / mouse and 144000 CFU counts / mouse and 145313 CFU counts / mouse in series [1] (6 weeks of treatment); 40714 CFU counts / mouse and 48086 CFU counts / mouse and 100000 CFU counts / mouse and 45000 CFU counts / mouse and 32560 CFU counts / mouse and 144000 CFU counts / mouse in series [1] (8 weeks of treatment); 251 CFU counts / mouse (2×) and 876 CFU counts / mouse and 1751 CFU counts / mouse in series [2].

On to `NC(=O)c1cnccn1` [PZA, pyrazinamide], for which the Papp A→B at 120 min in series [3] (Caco-2) was 49.7 to 61 ×10⁻⁶ cm/s. In series [3] (Caco-2), this compound had a Papp B→A at 120 min of 35 to 39.2 ×10⁻⁶ cm/s. Also, in series [3] (Caco-2), the efflux ratio at 120 min, 25 µg/mL came to 0.79. The efflux ratio at 120 min, 40 µg/mL in series [3] (Caco-2) is 0.57. Also, the results for the Papp at 120 min, 25 µg/mL in series [3] (direction AB) and in series [3] (direction BA) were 49.7 ×10⁻⁶ cm/s and 39.2 ×10⁻⁶ cm/s, respectively. In addition, the Papp at 120 min, 40 µg/mL in series [3] (direction AB) is 61 ×10⁻⁶ cm/s; in series [3] (direction BA), 35 ×10⁻⁶ cm/s. Moreover, the permeability classification result in series [4] (Caco-2) is on record as “highly permeable drug”. Besides, the Concentration is 0 ng/mL in series [4] (PZA 25 μg mL^-1, direction AB, time 0 min); 0 ng/mL and 525.202 ng/mL in series [4] (PZA 25 μg mL^-1, direction AB, time 10 min); 1333.17 ng/mL and 1096.85 ng/mL and 1005.65 ng/mL in series [4] (PZA 25 μg mL^-1, direction AB, time 30 min); 3321.25 ng/mL and 3452.37 ng/mL and 3341.43 ng/mL in series [4] (PZA 25 μg mL^-1, direction AB, time 60 min); 3158.86 ng/mL and 3253.04 ng/mL and 3097.63 ng/mL in series [4] (PZA 25 μg mL^-1, direction AB, time 90 min); 4030.2 ng/mL and 4138.52 ng/mL and 3490.73 ng/mL in series [4] (PZA 25 μg mL^-1, direction AB, time 120 min). Also, the Concentration in series [4] (PZA 25 μg mL^-1, direction BA, time 0 min) is 0 ng/mL; in series [4] (PZA 25 μg mL^-1, direction BA, time 10 min) it was 1503.99 ng/mL and 1317.17 ng/mL and 1941.63 ng/mL; in series [4] (PZA 25 μg mL^-1, direction BA, time 30 min), 5734.38 ng/mL and 4427.73 ng/mL and 5446.92 ng/mL; in series [4] (PZA 25 μg mL^-1, direction BA, time 60 min), 9786.14 ng/mL and 7994.45 ng/mL and 7975.63 ng/mL; in series [4] (PZA 25 μg mL^-1, direction BA, time 90 min), 11259.4 ng/mL and 8631.13 ng/mL and 9901.08 ng/mL; in series [4] (PZA 25 μg mL^-1, direction BA, time 120 min), 13405.8 ng/mL and 11006.7 ng/mL and 13558.7 ng/mL. Moreover, the Concentration was 0 ng/mL in series [4] (PZA 40 μg mL^-1, direction AB, time 0 min); 1048.64 ng/mL and 287.742 ng/mL and 2327.22 ng/mL in series [4] (PZA 40 μg mL^-1, direction AB, time 10 min); 1430.93 ng/mL and 3432 ng/mL and 3592.69 ng/mL in series [4] (PZA 40 μg mL^-1, direction AB, time 30 min); 4853.22 ng/mL and 4349.7 ng/mL and 4275.28 ng/mL in series [4] (PZA 40 μg mL^-1, direction AB, time 60 min); 5770.39 ng/mL and 5601.9 ng/mL and 5436.88 ng/mL in series [4] (PZA 40 μg mL^-1, direction AB, time 90 min); 4977.56 ng/mL and 4113.08 ng/mL and 4440.77 ng/mL in series [4] (PZA 40 μg mL^-1, direction AB, time 120 min). For the same compound, the Concentration in series [4] (PZA 40 μg mL^-1, direction BA, time 0 min) was 4045.86 ng/mL and 115.41 ng/mL and 340.993 ng/mL; in series [4] (PZA 40 μg mL^-1, direction BA, time 10 min), 3969.46 ng/mL and 1843.77 ng/mL and 2669.48 ng/mL; in series [4] (PZA 40 μg mL^-1, direction BA, time 30 min) it was 5459.68 ng/mL and 4472.97 ng/mL and 5086.94 ng/mL; in series [4] (PZA 40 μg mL^-1, direction BA, time 60 min), 9734.39 ng/mL and 8339.56 ng/mL and 9591.97 ng/mL; in series [4] (PZA 40 μg mL^-1, direction BA, time 90 min), 11611.6 ng/mL and 10257.1 ng/mL and 12377.9 ng/mL; in series [4] (PZA 40 μg mL^-1, direction BA, time 120 min), 12904.2 ng/mL and 13264.5 ng/mL and 15050 ng/mL. Further, the “Calculated Amount” value in series [4] (PZA (25 µg mL^-1), direction AB, compartment api, time 0 min) was 20066.1 and 22292.2 and 24678; in series [4] (PZA (25 µg mL^-1), direction AB, compartment api, time 120 min), 10717.9 and 11820.9 and 10695.5; in series [4] (PZA (25 µg mL^-1), direction AB, compartment baso, time 0 min) it was 0; in series [4] (PZA (25 µg mL^-1), direction AB, compartment baso, time 30 min), 1096.85 and 1005.65; in series [4] (PZA (25 µg mL^-1), direction AB, compartment baso, time 60 min) it was 3321.25 and 3452.37 and 3341.43; in series [4] (PZA (25 µg mL^-1), direction AB, compartment baso, time 90 min), 3158.86 and 3253.04 and 3097.63. Also, the “Calculated Amount” value in series [4] (PZA (25 µg mL^-1), direction AB, compartment baso, time 120 min) is 4030.2 and 4138.52 and 3490.73; in series [4] (PZA (25 µg mL^-1), direction BA, compartment api, time 0 min), 0; in series [4] (PZA (25 µg mL^-1), direction BA, compartment api, time 10 min), 1503.99 and 1317.17 and 1941.63; in series [4] (PZA (25 µg mL^-1), direction BA, compartment api, time 30 min), 5734.38 and 4427.73 and 5446.92; in series [4] (PZA (25 µg mL^-1), direction BA, compartment api, time 60 min), 9786.14 and 7994.45 and 7975.63; in series [4] (PZA (25 µg mL^-1), direction BA, compartment api, time 90 min) it was 11259.4 and 8631.13 and 9901.08. Also, the “Calculated Amount” value in series [4] (PZA (25 µg mL^-1), direction BA, compartment api, time 120 min) was 13405.8 and 11006.7 and 13558.7; in series [4] (PZA (25 µg mL^-1), direction BA, compartment baso, time 120 min), 22133.4; in series [4] (PZA (40 µg mL^-1), direction AB, compartment api, time 120 min), 15162.6 and 15570.7 and 14836.3; in series [4] (PZA (40 µg mL^-1), direction BA, compartment baso, time 120 min) it was 27713.4 and 29783.3 and 27759.2. In addition, in series [5], the “Papp (AB)” value is 70.4 10^−6 cm/s. For the same compound, the “Papp (BA)” value in series [5] is on record as 37.1 10^−6 cm/s. In addition, the “penetration into centrally necrotizing granulomas” value in series [6] is listed as “readily penetrates centrally necrotizing granulomas”.

For the compound `CO[C@H]1/C=C/O[C@@]2(C)Oc3c(C)c(O)c4c(O)c(c(/C=N/N5CCN(C)CC5)c(O)c4c3C2=O)NC(=O)/C(C)=C\C=C\[C@H](C)[C@H](O)[C@@H](C)[C@@H](O)[C@@H](C)[C@H](OC(C)=O)[C@@H]1C` [RIF, rifampicin], in series [6], the “penetration into the cellular rim and necrotic center” value is given as “at least some penetration”.

For the compound `CC(C)=CCC/C(C)=C/CNCCNC1C2CC3CC(C2)CC1C3` (stereo not shown) [SQ109], the “distribution in centrally necrotizing lesions by MALDI imaging” value in series [6] (in vivo) is reported as “strong signals in the cellular rim of centrally necrotizing lesions but only poor diffusion into the avascular caseum”.

For `CC(C)/N=c1\cc2n(-c3ccc(Cl)cc3)c3ccccc3nc-2cc1Nc1ccc(Cl)cc1` [clofazimine], in series [5], the “Papp (AB)” value is 0.17 10^−6 cm/s and the “Papp (BA)” value was 0.18 10^−6 cm/s. The “penetration into centrally necrotizing granulomas” value in series [6] is “only very limited penetration”.
